Data published in publication PMC13258496, “Synthesis of Methoxylated Benzoxanthones as Drug Metabolites of Antischistosomal Schistodiones—A Limited Environmental Risk” (Molecules, 2026).

System: S. aureus
Experiment: Primary antibacterial screening
Type: cell-based
Settings: Staphylococcus aureus
Method: The cytotoxicity of the same compounds was evaluated against human fibroblasts (hMRC-5) and mouse macrophages (PMM). All assays were carried out with parent benzylMD (PD, SD-A2′,5′, SD-A3′,5′) and control drug references.
The primary in vitro evaluation of test compounds at LMPH is performed against a broad panel of pathogens to allow proper evaluation of selectivity. Compound stock solutions are prepared in 100% DMSO at 20 mM. The compounds are serially pre-diluted (two-fold or four-fold) in DMSO followed by a further (intermediate) dilution in demineralized water to assure a final in-test DMSO concentration of <1%.

Work on CC[C@H]1OC(=O)[C@H](C)[C@@H](O[C@H]2C[C@@](C)(OC)[C@@H](O)[C@H](C)O2)[C@H](C)[C@@H](O[C@@H]2O[C@H](C)C[C@H](N(C)C)[C@H]2O)[C@](C)(O)C[C@@H](C)C(=O)[C@H](C)[C@@H](O)[C@]1(C)O [Erythromycin] yielded an IC50 of 11.3 µM.
